From patent US4250178A, “Amides derived from carboxyl-5 pyrimidines” (Delalande S.A., priority 1978, dated 1981)
Where a name gives a salt, the structure may show the parent alone.

What was measured:
[1] = acute toxicity in mice, intraperitoneal (Miller and Tainter); conditions: mouse, in vivo, ip, read-out: Acute toxicity (mice) LD 50
Description: The acute toxicity was studied in mice intraperitoneally and the lethal doses estimated according to the method described by Miller and Tainter in Proc. Soc. Exper.

[2] = test system: apomorphine straightening; assay: test of antagonism to apomorphine straightening in mice, intraperitoneal (Gouret); assay type: in vivo; conditions: Mus musculus, ip, read-out: Apomorphine straightening ED 50

Compound	LD50 [1]	ED50 [2]
CCN(CC)CCNC(=O)c1cnc(N)nc1OC [76.0745]	650 mg/kg	30 mg/kg
CCN1CCCC1CNC(=O)c1cnc(N)nc1OC (stereo not shown) [76.0843]	300 mg/kg	6 mg/kg
COc1ccccc1N1CCN(CCNC(=O)c2cnc(N)nc2OC)CC1 [76.0994]	150 mg/kg	3 mg/kg
COc1nc(N)ncc1C(=O)NC1CCN(Cc2ccccc2)CC1 [77.0208]	500 mg/kg	3.5 mg/kg
CCN(CCNC(=O)c1cnc(N)nc1OC)Cc1ccccc1 [77.0489]	330 mg/kg	3 mg/kg
CCOc1nc(N)ncc1C(=O)NCCN(CC)CC [77.0508]	300 mg/kg	30 mg/kg
COc1nc(N)ncc1C(=O)NCCN(C)Cc1ccccc1 [77.0512, 1-[5-(2-amino 4-methoxypyrimidinyl)carboxamido] 2-[N-methyl N-benzylamino] ethane]	400 mg/kg	10 mg/kg
CCOc1nc(N)ncc1C(=O)NCC1CCCN1CC (stereo not shown) [77.0540]	150 mg/kg	3 mg/kg
COc1nc(N)ncc1C(=O)NCCNc1ccccc1 [77.0580]	400 mg/kg	30 mg/kg
CCCOc1nc(N)ncc1C(=O)NCC1CCCN1CC (stereo not shown) [77.0621]	150 mg/kg	15 mg/kg
CCN(CC)CCNC(=O)c1cnc(C)nc1OC [77.0766]	300 mg/kg	12 mg/kg
CCN1CCCC1CNC(=O)c1cnc(C)nc1OC (stereo not shown) [77.0805]	200 mg/kg	7 mg/kg
CCN(CC)CCNC(=O)c1cnc(SC)nc1OC [77.0806]	150 mg/kg	30 mg/kg
CCN1CCCC1CNC(=O)c1cncnc1OC (stereo not shown) [77.0807]	300 mg/kg	18.5 mg/kg
CCN1CCCC1CNC(=O)c1cnc(SC)nc1OC (stereo not shown) [77.0840]	95 mg/kg	10 mg/kg
COc1nc(N)ncc1C(=O)NCCN1CCc2ccccc2C1 [77.0862, 1-[5-(2-amino 4-methoxypyrimidinyl)carboxamido] 2-[(tetrahydro 1,2,3,4)isoquinolin-2-yl] ethane]	300 mg/kg	30 mg/kg
CCN1CCCC1CNC(=O)c1cnc(N)nc1OC(C)C (stereo not shown) [77.0871]	170 mg/kg	30 mg/kg
CC(C)Oc1nc(N)ncc1C(=O)NC1CCN(Cc2ccccc2)CC1 [77.0872]	115 mg/kg	11 mg/kg
COc1nc(C)ncc1C(=O)NC1CCN(Cc2ccccc2)CC1 [77.0878]	150 mg/kg	10 mg/kg
COc1nc(N)ncc1C(=O)NCC1CCCN1Cc1ccccc1 (stereo not shown) [77.0880]	180 mg/kg	9 mg/kg
COc1ncncc1C(=O)NC1CCN(Cc2ccccc2)CC1 [77.0886]	125 mg/kg	17.5 mg/kg
COc1nc(N)ncc1C(=O)NC1CCN(Cc2ccccc2)C1 (stereo not shown) [77.0958]	150 mg/kg	1.5 mg/kg
COc1nc(N)ncc1C(=O)NC1CCN(C2CCCCC2)C1 (stereo not shown) [77.1006]	175 mg/kg	3 mg/kg

Compound	LD50 [1]	ED50 [2]
COc1nc(N(C)C)ncc1C(=O)NC1CCN(Cc2ccccc2)CC1 [77.1011]	25 mg/kg	2.7 mg/kg
CCCCN1CCCC1CNC(=O)c1cnc(N)nc1OC (stereo not shown) [77.1012]	110 mg/kg	7 mg/kg
COc1nc(N)ncc1C(=O)N1CC1 [77.1017]	300 mg/kg	15 mg/kg
COc1nc(N)ncc1C(=O)NCC1CCCN1Cc1ccc(F)cc1 (stereo not shown) [77.1047]	130 mg/kg	4.5 mg/kg
CCN1CCCC1CNC(=O)c1cnc(N(C)C)nc1OC (stereo not shown) [77.1057]	130 mg/kg	1.3 mg/kg
CCN(CC)CCNC(=O)c1cnc(N(C)C)nc1OC [77.1075]	200 mg/kg	16 mg/kg
CCN1CCCC1CNC(=O)c1cnc(OC)nc1OC (stereo not shown) [77.1243]	150 mg/kg	15 mg/kg
COc1ncc(C(=O)NC2CCN(Cc3ccccc3)CC2)c(OC)n1 [77.1244]	180 mg/kg	10 mg/kg
CCN1CCCC1CNC(=O)c1cc(S(N)(=O)=O)ccc1OC (stereo not shown) [SULPIRIDE, Sulpiride, reference compound]		37 mg/kg
CCCN1CCCC1CNC(=O)c1cnc(N)nc1OC (stereo not shown) [compound 771120]	180 mg/kg	3.4 mg/kg
CCN1CCCC1CNC(=O)c1cnc(NC)nc1OC (stereo not shown) [compound 771226]	110 mg/kg	1.4 mg/kg
CNc1ncc(C(=O)NC2CCN(Cc3ccccc3)CC2)c(OC)n1 [compound 771261]	70 mg/kg	2.4 mg/kg
COc1nc(N)ncc1C(=O)NC1CCN(Cc2ccc(F)cc2)C1 (stereo not shown) [compound 771274]	100 mg/kg	1.4 mg/kg
COc1nc(N)ncc1C(=O)NCC1CCCN1C (stereo not shown) [compound 780079]	225 mg/kg	11 mg/kg
COc1nc(C)ncc1C(=O)NCc1cccn1C [compound 780204]	400 mg/kg	50 mg/kg
COc1nc(C)ncc1C(=O)NC1CCN(Cc2ccccc2)C1 (stereo not shown) [compound 780326]	130 mg/kg	5.8 mg/kg
CCN(CCNC(=O)c1cnc(C)nc1OC)Cc1ccccc1 [compound 780327]	170 mg/kg	7 mg/kg
CCOc1nc(C)ncc1C(=O)NCC1CCCN1CC (stereo not shown) [compound 780336]	170 mg/kg	1.8 mg/kg
CCCOc1nc(C)ncc1C(=O)NCC1CCCN1CC (stereo not shown) [compound 780432]	170 mg/kg	7.5 mg/kg
CCCCN1CCCC1CNC(=O)c1cnc(C)nc1OC (stereo not shown) [compound 780457]	160 mg/kg	17 mg/kg
COc1nc(C)ncc1C(=O)NCC1CCCN1Cc1ccccc1 (stereo not shown) [compound 780458]	140 mg/kg	13 mg/kg
COc1nc(C)ncc1C(=O)NCC1CCCN1Cc1ccc(F)cc1 (stereo not shown) [compound 780505]	155 mg/kg	15 mg/kg
COc1ccccc1N1CCN(CCNC(=O)c2cnc(C)nc2OC)CC1 [compound 780521]	140 mg/kg	5.25 mg/kg

Compound	LD50 [1]	ED50 [2]
COc1nc(C)ncc1C(=O)NCCN1CCN(c2ccccc2)CC1 [compound 780522]	130 mg/kg	10 mg/kg
CCCN1CCCC1CNC(=O)c1cnc(C)nc1OC (stereo not shown) [compound 780552]	140 mg/kg	12.5 mg/kg
COc1nc(C)ncc1C(=O)NC1CCN(Cc2ccc(F)cc2)C1 (stereo not shown) [compound 780560]	100 mg/kg	3 mg/kg
CCN1CCCC1CNC(=O)c1cnc(C)nc1OC(C)C (stereo not shown) [compound 780561]	170 mg/kg	3.3 mg/kg
CCN1CCC[C@H]1CNC(=O)c1cnc(C)nc1OC [compound 780648]	200 mg/kg	3.2 mg/kg
CCOc1nc(C)ncc1C(=O)NCCN(CC)Cc1ccccc1 [compound 780656]	140 mg/kg	6 mg/kg
COc1nc(C)ncc1C(=O)NCC1CCCN1C (stereo not shown) [compound 780680]	275 mg/kg	7.2 mg/kg
COc1nc(C)ncc1C(=O)NCCN1CCN(c2ccc(F)cc2)CC1 [compound 780686]	115 mg/kg	10 mg/kg
CCCc1ncc(C(=O)NCC2CCCN2CC)c(OC)n1 (stereo not shown) [compound 780700]	200 mg/kg	17 mg/kg
C=CCN1CCCC1CNC(=O)c1cnc(C)nc1OC (stereo not shown) [compound 780784]	280 mg/kg	5.5 mg/kg
COc1nc(C)ncc1C(=O)NCC1CCCN1CC1CCCCC1 (stereo not shown) [compound 780836]	140 mg/kg	9 mg/kg
CCN(CCNC(=O)c1cnc(C)nc1OC)CC1CCCCC1 [compound 780866]	120 mg/kg	4.7 mg/kg
CCN(CCNC(=O)c1cnc(C)nc1OC)Cc1ccc(F)cc1 [compound 780886]	140 mg/kg	10 mg/kg
CCOc1nc(C)ncc1C(=O)NCCN(CC)Cc1ccc(F)cc1 [compound 780887]	140 mg/kg	1 mg/kg
CCOc1nc(C)ncc1C(=O)NC[C@@H]1CCCN1CC [compound 780905]	175 mg/kg	0.88 mg/kg
CCN1CCCC1CNC(=O)c1cnc(C(C)C)nc1OC (stereo not shown) [compound 780907]	120 mg/kg	10 mg/kg
CCOc1nc(C)ncc1C(=O)NCC1CCCN1C (stereo not shown) [compound 781017]	150 mg/kg	4.1 mg/kg
CCOc1nc(CC)ncc1C(=O)NCC1CCCN1C (stereo not shown) [compound 781021, 4-ethoxy 2-ethyl 5-(1-methylpyrrolidin-2-yl)methylamino carbonyl pyrimidine, fumarate]	115 mg/kg	10.5 mg/kg
CCOc1nc(CC)ncc1C(=O)NCC1CCCN1CC (stereo not shown) [compound 781022]	140 mg/kg	3 mg/kg
CCOc1nc(N(C)C)ncc1C(=O)NC[C@@H]1CCCN1CC [compound 781170]	120 mg/kg	2.3 mg/kg
CCN1CCC[C@H]1CNC(=O)c1cnc(N(C)C)nc1OC [compound 781171]	100 mg/kg	3 mg/kg
